Measurements from patent US20130324555A1, “Method of use of pharmaceutical formulations for the treatment of apicomplexan diseases in animals” (priority 2012, published 2013).
pIC50: −log10 of the molar value. Entries after “also recorded” stand apart in the source; their conditions may differ. Like-named read-outs stand apart in the source and are kept apart here.

Legend:
HFF cells = assay: In vitro toxicity assay on host cells ([3H]-thymidine incorporation or WST-1); format: cell-based, Human; details: for Toxicity: HFF cells
Experimental: Determination of the anti-apicomplexan activity of Compounds of Formula I may be determined by one skilled in the art. Parasite proliferation was monitored by using stably transfected type I RH-YFP parasites, which constitutively express Yellow Florescent Protein. Proliferation also was tested using a [^3H]-Uracil incorporation assay, as Uracil is incorporated into nucleic acids of T. gondii tachyzoites, but not mammalian cells, as they divide. Complimentary challenge assays ensured that the observed fluorescence data was due to parasite inhibition and not to quenched fluorescence. Pyrimethamine and sulfadiazine were used as positive controls, and DMSO at a concentration of 0.1% was used as the negative control. Because T. gondii is an obligate parasite, compounds that are toxic to host cells will appear to inhibit parasite growth. Therefore, all test compounds were simultaneously evaluated for efficacy and toxicity against human cells.
HFF cells were grown to 30% confluence in 96-well plates.
Inhibitory compounds and control media were added to wells in concentrations equal to those being tested in challenge assays. After 72 hours, [^3H]-Thymidine incorporation assay was conducted to assess cell growth. Alternatively, toxicity was assessed using WST-1 cell proliferation reagent (Roche). Confluent HFF cells were treated with inhibitory and control compounds. On the final day of experiment, 10 uL of WST-1 reagent was added to each well. Plates were incubated for 1 hour in the dark at 37° C., and absorbance was measured using Synergy H4 Hybrid Reader (BioTek) fluorometer at […].

[1] = test system: P. falciparum D6 (CDC/Sierra Leone); assay: Malaria SYBR Green 1-Based Fluorescence (MSF) Assay, strain D6; format: cell-based; details: for IC50 / pIC50: Plasmodium falciparum; for pIC50: read-out: D6 IC50 (molar)
Experimental: (§1) Compound activity against P. falciparum, the causative agent of malaria, was assessed using the Malaria SYBR Green 1-Based Fluorescence (MSF) Assay. This microtiter plate drug sensitivity assay uses the presence of malarial DNA as a measure of parasitic proliferation. The assay is a microtiter plate drug sensitivity assay that uses the presence of malarial DNA as a measure of parasitic proliferation in the presence of antimalarial drugs or experimental compounds based on modifications of previously described methods (Plouffe et al., Proc Natl Acad Sci USA. 2008, 105, 9059-9064), (Johnson et al., Antimicrob. Agents Chemother. 2005, 49, 3463-3467).
(§2) Selected compounds were examined for activity against two strains of P. falciparum: D6 (CDC/Sierra Leone), a drug-sensitive and readily killed by chloroquine, and TM90-C235, a multi-drug resistant strain resistant to chloroquine.
(§3) D6 (CDC/Sierra Leone) and TM90-C235 (WRAIR, Thailand) laboratory strains of P. falciparum were used for each drug sensitivity assessment. The parasite strains were maintained continuously in long-term cultures as previously described in Johnson et al, and P. falciparum strains in late-ring or early-trophozoite stages were cultured in predosed 384-well microtiter drug assay plates in 38 μl culture volume per well at a starting parasitemia of 0.3% and a hematocrit of 2%. Pre-dosed, sterile, 384 well black optical bottom microtiter drug plates for use in the MSF assay were produced using a Tecan EVO Freedom Liquid Handling System (Tecan US, Durham, N.C.). Dose response plates were produced at a final concentration ranging from 0.5-10000 ng/ml in quadruplicate (twelve two-fold serial dilutions of each test compound or chloroquine control in DMSO. Each run was validated by a batch control plate with chloroquine (Sigma-Aldrich Co., Catalog #C6628) at a final concentration of 2000 ng/ml. The cultures were incubated for 72 hours at 37° C., 5% CO2, 5% O2 and 90% N2. Lysis buffer (38 μl per well), consisting of 20 mM Tris HCl, 5 mM EDTA, 1.6% Triton X, 0.016% saponin, and SYBR green I dye at a 20× concentration (Invitrogen, Catalog #S-7567) was then added to the assay plates utilizing the Tecan EVO Freedom system for a final SYBR Green concentration of 10×. Plates were incubated in the dark at room temperature in the dark for 24 hours.
(§4) Compound activity was assessed by examining for the relative fluorescence units (RFU) per well using the Tecan Genios Plus (Tecan US, Inc., Durham, N.C.). GraphPad Prism (GraphPad Software Inc., San Diego, Calif.) using the nonlinear regression (sigmoidal dose-response/variable slope) equation was used to determine IC50 values.

RH-YFP tachyzoites = assay: Determination of static or cidal effects; format: cell-based, T. gondii; details: compound at 1 μM; for static or cidal effect: growth assessed at days 11, 17, 25
Experimental: In order to determine whether leading compounds in this study inhibited parasite proliferation by either a cidal or static mechanism, four were selected (3i, 3j, 7a, and 14a) and applied at four to eight times MICs50 to parasites. In this assay, RH-YFP tachyzoites were treated with each compound at 1 μM under various dosing conditions:
Condition A: Parasites were treated for four days, then compound was removed
Condition B: Parasites were treated for ten days, then compound was removed
Condition C: Compound was refreshed at four days then removed at ten days
Condition D: Compound was maintained for the duration of the experiment
The four and ten day time points were taken to reveal the impact of extended exposure of the parasites to the test substance. Compounds were refreshed at four days to examine whether compound degradation could contribute to an observed static effect. Parasite growth was assessed at days 11, 17, and 25. The growth data, as a function of ^3H-uracil uptake, is expressed in FIG. 7. 4 days, Condition A; 10 days, renewed at 4, Condition B; 10 days, Condition C; All time, Condition D. Ordinate: Counts per minute.
RH-YFP tachyzoites were treated with each compound at 1 μM under one of four conditions: a) parasites were treated for four days, then compound was removed; b) parasites were treated for ten days, then compound was removed; c) compound was refreshed at four days and removed at ten; or d) compound was maintained for the duration of the experiment. The four and ten day time points were taken to reveal the impact of extended exposure of the parasites to the test substance. Compounds were refreshed at four days to examine whether compound degradation could contribute to an observed static effect. Parasite growth was assessed at 11, 17, and 25 days.

P. falciparum TM90-C235 = assay: Malaria SYBR Green 1-Based Fluorescence (MSF) Assay, strain TM90-C235; format: cell-based; details: for efficacy against TM90-C235 compared with D6 (cross-resistance): D6 versus TM90-C235; for C235 IC50: multi-drug resistant strain TM90-C235
Experimental: as §1, §2, §3, §4

[2] = test system: THdhxgTRP tachyzoites transfected with pLK47; assay: Insertional mutagenesis experiments (selection of resistant mutants); format: cell-based, T. gondii; details: prolonged incubation (six weeks)
Experimental: Insertional mutagenesis experiments were performed.
THdhxgTRP tachyzoites were transfected with pLK47 vector plasmid. Parasites were extracted from HFF cells and resuspended in 1 mL cytomix electroporation buffer solution (120 mM KCl, 150 uM CaCl2, 5 mM K2HPO4, 5 mM KH2PO4, 25 mM HEPES, 2 mM EDTA and 5 mM MgCl2 in sterile H2O). Equivalent amounts of plasmid DNA and cytomix solution containing 10×10^7 parasites were combined for a total volume of 400 uL and electroporated using BioRad electroporator at 1.5 k, […] and 100Ω. […] Successfully transfected parasites were selected by month-long treatment with mycophenolic acid (25 ug/mL) and xanthine (50 ug/mL). After one month, the mixed mutant population were exposed to 3i, 3j, 7a or 14b to select for those mutants whose gene disruption conferred resistance to the drug.

[3] = D6, chloroquine-sensitive strain D6, read-out: D6 IC50
[4] = D6, chloroquine-sensitive strain D6
[5] = chloroquine-sensitive strain D6
[6] = Plasmodium falciparum, TM90, multi-drug resistant strain TM90-C235, read-out: C235 IC50
[7] = Plasmodium falciparum, TM90, read-out: C235 IC50

| SMILES | toxicity to human host cells, in words (HFF cells) | Toxicity (HFF cells) | IC50 [1, 3] | pIC50 [1, 4] | D6 IC50 [1, 5] | static or cidal effect (RH-YFP tachyzoites) | efficacy against TM90-C235 compared with D6 (cross-resistance) (P. falciparum TM90-C235) | IC50 (P. falciparum TM90-C235; [6]) | C235 IC50 (P. falciparum TM90-C235) | parasite growth of mixed mutant population in the presence of compound [2] | IC50 ([1]; chloroquine-sensitive strain D6, read-out: D6 IC50) | duration of treatment after which a cidal effect was shown (RH-YFP tachyzoites) | IC50 (P. falciparum TM90-C235; [7]) | pIC50 (P. falciparum TM90-C235; Plasmodium falciparum, TM90, chloroquine resistant strain TM90-C235, read-out: TM90-C235 IC50) | IC50 ([1]; D6, read-out: D6 IC50) | parasite growth of mixed mutant population in the presence of compound ([2]; hydrochloride) |
| --- | --- | --- | --- | --- | --- | --- | --- | --- | --- | --- | --- | --- | --- | --- | --- | --- |
| CC(C)(C)c1cccc(NC(=O)c2cc(Cl)ccc2O)c1 [Compound 3i, N-(3-tert-butylphenyl)-5-chloro-2-hydroxybenzamide] | not toxic to human host cells | >1000 nM | 0.957 µg/mL | 5.52 | 956.9 ng/mL | parasitostatic; also recorded: static effect | two-fold higher IC50 | > 2 µg/mL | >2000 ng/mL | No parasite growth was observed; also recorded: No parasite growth was noted | – | – | – | – | – | – |
| O=C(Nc1cc(C(F)(F)F)cc(C(F)(F)F)c1)c1cc(Cl)ccc1O [Compound 3j] | not toxic to human host cells | >1000 nM | – | – | – | parasitocidal; also recorded: cidal | equally effective | – | – | No parasite growth was observed; also recorded: No parasite growth was noted | 0.593 µg/mL | four days | 0.541 µg/mL | – | – | – |
| O=C(Oc1ccc(Cl)cc1C(=O)Nc1ccc([N+](=O)[O-])cc1Cl)c1ccccc1 [Compound 7a, 4-chloro-2-((2-chloro-4-nitrophenyl)carbamoyl)phenyl benzoate] | not toxic to human host cells | >1000 nM | 0.295 µg/mL | 6.15 | 294.6 ng/mL | parasitocidal; also recorded: cidal | equally effective | 0.267 µg/mL | 266.6 ng/mL | No parasite growth was observed; also recorded: No parasite growth was noted | – | four days | – | 6.22 | – | – |
| CN(CC(=O)NN)C(=O)Oc1ccc(Cl)cc1C(=O)Nc1ccc([N+](=O)[O-])cc1Cl.Cl [Compound 14a, 4-chloro-2-((2-chloro-4-nitrophenyl)carbamoyl)phenyl (2-hydrazinyl-2-oxoethyl)(methyl)carbamate hydrochloride] | not toxic to human host cells | >1000 nM | – | – | – | cidal | equally effective | – | – | – | – | ten days | 1.32 µg/mL | – | 1.33 µg/mL | – |
| CN(CC(=O)NN)C(=O)Oc1ccc(Cl)cc1C(=O)Nc1ccc(C(F)(F)F)cc1C(F)(F)F.Cl [Compound 14b, 2-((2,4-bis(trifluoromethyl)phenyl)carbamoyl)-4-chlorophenyl (2-hydrazinyl-2-oxoethyl)(methyl)carbamate hydrochloride] | not toxic to human host cells | >1000 nM | – | – | – | – | – | – | – | – | – | – | – | – | – | No parasite growth was observed; also recorded: No parasite growth was noted |
